Reference: PubChem BioAssay (NCI)
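Following 48 hours of exposure in 96-well plates, responses at five concentrations were used to interpolate endpoints linearly. Abbreviation: GI50, concentration required for 50% inhibition of growth. TGI marks complete inhibition of growth.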

Assays:
Assay in all cases: NCI tumour cell line growth inhibition, 48 h
SF-295 CNS = test system: SF-295 CNS
UO-31 renal = test system: UO-31 renal
COLO 205 colon = test system: COLO 205 colon
SF-268 CNS = test system: SF-268 CNS
SNB-75 CNS = test system: SNB-75 CNS
NCI-H522 lung = test system: NCI-H522 lung
K-562 leukemia = test system: K-562 leukemia
HCT-15 colon = test system: HCT-15 colon
MDA-MB-435 = test system: MDA-MB-435
UACC-62 melanoma = test system: UACC-62 melanoma
T-47D breast = test system: T-47D breast
NCI-H226 lung = test system: NCI-H226 lung
OVCAR-5 ovarian = test system: OVCAR-5 ovarian
SF-539 CNS = test system: SF-539 CNS
786-0 renal = test system: 786-0 renal
HT29 colon = test system: HT29 colon
MALME-3M melanoma = test system: MALME-3M melanoma
SNB-19 CNS = test system: SNB-19 CNS
SR leukemia = test system: SR leukemia
OVCAR-3 ovarian = test system: OVCAR-3 ovarian
CCRF-CEM leukemia = test system: CCRF-CEM leukemia
ACHN renal = test system: ACHN renal
PC-3 prostate = test system: PC-3 prostate
NCI-H23 lung = test system: NCI-H23 lung
M14 melanoma = test system: M14 melanoma
BT-549 breast = test system: BT-549 breast
RPMI-8226 leukemia = test system: RPMI-8226 leukemia
RXF 393 renal = test system: RXF 393 renal
NCI-H460 lung = test system: NCI-H460 lung
UACC-257 melanoma = test system: UACC-257 melanoma
MDA-MB-231 breast = test system: MDA-MB-231 breast
HL-60(TB) leukemia = test system: HL-60(TB) leukemia
MCF7 breast = test system: MCF7 breast
A498 renal = test system: A498 renal
CAKI-1 renal = test system: CAKI-1 renal
SN12C renal = test system: SN12C renal
HCT-116 colon = test system: HCT-116 colon
HOP-92 NSCLC = test system: HOP-92 NSCLC
EKVX NSCLC = test system: EKVX NSCLC
LOX IMVI melanoma = test system: LOX IMVI melanoma
DU-145 prostate = test system: DU-145 prostate
SK-MEL-28 melanoma = test system: SK-MEL-28 melanoma
SK-MEL-5 melanoma = test system: SK-MEL-5 melanoma
IGROV1 ovarian = test system: IGROV1 ovarian
OVCAR-4 ovarian = test system: OVCAR-4 ovarian
SK-OV-3 ovarian = test system: SK-OV-3 ovarian
NCI/ADR-RES ovarian = test system: NCI/ADR-RES ovarian
MOLT-4 leukemia = test system: MOLT-4 leukemia
HCC-2998 colon = test system: HCC-2998 colon
U251 CNS = test system: U251 CNS
OVCAR-8 ovarian = test system: OVCAR-8 ovarian
KM12 colon = test system: KM12 colon
SK-MEL-2 melanoma = test system: SK-MEL-2 melanoma
HS 578T breast = test system: HS 578T breast
A549 NSCLC = test system: A549 NSCLC
SW-620 colon = test system: SW-620 colon
HOP-62 NSCLC = test system: HOP-62 NSCLC
TK-10 renal = test system: TK-10 renal

With `NS(=O)(=O)c1ccc(N=Nc2c(O)[nH]c3ccc(-c4cnco4)cc23)cc1` the GI50 (SF-295 CNS) was over 25 µM, the TGI (SF-295 CNS) was over 25 µM and the GI50 (UO-31 renal) was over 25 µM. It also gave a TGI (UO-31 renal) of over 25 µM, a GI50 (COLO 205 colon) of over 25 µM and a TGI (COLO 205 colon) of over 25 µM. It also gave a GI50 (SF-268 CNS) of over 25 µM, a TGI (SF-268 CNS) of over 25 µM and a GI50 (SNB-75 CNS) of 10.1 µM. It also gave a TGI (SNB-75 CNS) of over 25 µM, a GI50 (NCI-H522 lung) of over 6.68 µM and a TGI (NCI-H522 lung) of over 25 µM. The GI50 (K-562 leukemia) was over 25 µM, the TGI (K-562 leukemia) was over 25 µM and the GI50 (HCT-15 colon) was over 25 µM. It also gave a TGI (HCT-15 colon) of over 25 µM, a GI50 (MDA-MB-435) of over 25 µM and a TGI (MDA-MB-435) of over 25 µM. For the same compound, the GI50 (UACC-62 melanoma) was over 25 µM, the TGI (UACC-62 melanoma) was over 25 µM and the GI50 (T-47D breast) was over 25 µM. For the same compound, the TGI (T-47D breast) was over 25 µM, the GI50 (NCI-H226 lung) was over 25 µM and the TGI (NCI-H226 lung) was over 25 µM. For the same compound, the GI50 (OVCAR-5 ovarian) was over 25 µM, the TGI (OVCAR-5 ovarian) was over 25 µM and the GI50 (SF-539 CNS) was over 25 µM. For the same compound, the TGI (SF-539 CNS) was over 25 µM, the GI50 (786-0 renal) was over 25 µM and the TGI (786-0 renal) was over 25 µM. For the same compound, the GI50 (HT29 colon) was over 25 µM, the TGI (HT29 colon) was over 25 µM and the GI50 (MALME-3M melanoma) was over 25 µM. It also gave a TGI (MALME-3M melanoma) of over 25 µM, a GI50 (SNB-19 CNS) of over 25 µM and a TGI (SNB-19 CNS) of over 25 µM. It also gave a GI50 (SR leukemia) of 4.99 µM, a TGI (SR leukemia) of over 25 µM and a GI50 (OVCAR-3 ovarian) of over 25 µM. The TGI (OVCAR-3 ovarian) was over 25 µM, the GI50 (CCRF-CEM leukemia) was 14.4 µM and the TGI (CCRF-CEM leukemia) was over 25 µM. The GI50 (ACHN renal) was 17.7 µM, the TGI (ACHN renal) was over 25 µM and the GI50 (PC-3 prostate) was over 25 µM. The TGI (PC-3 prostate) was over 25 µM, the GI50 (NCI-H23 lung) was over 25 µM and the TGI (NCI-H23 lung) was over 25 µM. The GI50 (M14 melanoma) was over 25 µM, the TGI (M14 melanoma) was over 25 µM and the GI50 (BT-549 breast) was 18 µM. The TGI (BT-549 breast) was over 25 µM, the GI50 (RPMI-8226 leukemia) was over 25 µM and the TGI (RPMI-8226 leukemia) was over 25 µM. It also gave a GI50 (RXF 393 renal) of over 19.6 µM, a TGI (RXF 393 renal) of over 25 µM and a GI50 (NCI-H460 lung) of 14.3 µM. It also gave a TGI (NCI-H460 lung) of over 25 µM, a GI50 (UACC-257 melanoma) of over 25 µM and a TGI (UACC-257 melanoma) of over 25 µM. It also gave a GI50 (MDA-MB-231 breast) of over 25 µM, a TGI (MDA-MB-231 breast) of over 25 µM and a GI50 (HL-60(TB) leukemia) of over 25 µM. For the same compound, the TGI (HL-60(TB) leukemia) was over 25 µM, the GI50 (MCF7 breast) was 11.8 µM and the TGI (MCF7 breast) was over 25 µM. The GI50 (A498 renal) was over 25 µM, the TGI (A498 renal) was over 25 µM and the GI50 (CAKI-1 renal) was over 25 µM. The TGI (CAKI-1 renal) was over 25 µM, the GI50 (SN12C renal) was over 25 µM and the TGI (SN12C renal) was over 25 µM. The GI50 (HCT-116 colon) was 6.97 µM, the TGI (HCT-116 colon) was over 25 µM and the GI50 (HOP-92 NSCLC) was over 25 µM. For the same compound, the TGI (HOP-92 NSCLC) was over 25 µM, the GI50 (EKVX NSCLC) was over 25 µM and the TGI (EKVX NSCLC) was over 25 µM. The GI50 (LOX IMVI melanoma) was 22.8 µM, the TGI (LOX IMVI melanoma) was over 25 µM and the GI50 (DU-145 prostate) was 24.4 µM. The TGI (DU-145 prostate) was over 25 µM, the GI50 (SK-MEL-28 melanoma) was over 25 µM and the TGI (SK-MEL-28 melanoma) was over 25 µM. It also gave a GI50 (SK-MEL-5 melanoma) of over 25 µM, a TGI (SK-MEL-5 melanoma) of over 25 µM and a GI50 (IGROV1 ovarian) of over 25 µM. For the same compound, the TGI (IGROV1 ovarian) was over 25 µM, the GI50 (OVCAR-4 ovarian) was over 25 µM and the TGI (OVCAR-4 ovarian) was over 25 µM. It also gave a GI50 (SK-OV-3 ovarian) of over 25 µM, a TGI (SK-OV-3 ovarian) of over 25 µM and a GI50 (NCI/ADR-RES ovarian) of over 25 µM. For the same compound, the TGI (NCI/ADR-RES ovarian) was over 25 µM, the GI50 (MOLT-4 leukemia) was over 25 µM and the TGI (MOLT-4 leukemia) was over 25 µM. For the same compound, the GI50 (HCC-2998 colon) was over 25 µM, the TGI (HCC-2998 colon) was over 25 µM and the GI50 (U251 CNS) was over 25 µM. The TGI (U251 CNS) was over 25 µM, the GI50 (OVCAR-8 ovarian) was over 19.2 µM and the TGI (OVCAR-8 ovarian) was over 25 µM. It also gave a GI50 (KM12 colon) of 6.86 µM, a TGI (KM12 colon) of over 23.9 µM and a GI50 (SK-MEL-2 melanoma) of over 25 µM. For the same compound, the TGI (SK-MEL-2 melanoma) was over 25 µM, the GI50 (HS 578T breast) was over 25 µM and the TGI (HS 578T breast) was over 25 µM. For the same compound, the GI50 (A549 NSCLC) was over 25 µM, the TGI (A549 NSCLC) was over 25 µM and the GI50 (SW-620 colon) was 9.91 µM. For the same compound, the TGI (SW-620 colon) was over 25 µM, the GI50 (HOP-62 NSCLC) was over 25 µM and the TGI (HOP-62 NSCLC) was over 25 µM. For the same compound, the GI50 (TK-10 renal) was over 25 µM and the TGI (TK-10 renal) was over 25 µM.
